Assay results taken from article PMC6291738, “Identification of novel HIV-1-derived HLA-E-binding peptides” (Immunology Letters, 2018).
“And” between values parts separate entries of the source, which are not always exact repeats. Equal entries are not always repeated. No end group written: not given here.

Experiments:
HLA-E*01:01 [1] = biological target: T1, HLA-E*01:01 (Homo sapiens, UniProt P13747, G128R); experiment: HLA-E/peptide cell-surface stabilization (binding) assay, RMA-S cells transfected with HLA-E*01:01; format: cell-based; parameters: RMA-S cells expressing HLA-E*01:01 and E*01:03 were generated by transfecting the genes into the RMA-S cell line; expressed in transfected cells; host or cells: murine TAP-deficient RMA-S cells; conditions: RMA-S cells with HLA-E*01:01 and human β2-microglobulin; overnight 26 °C, peptide 1 h 26 °C, 3 h 37 °C; peptide 100 μg/ml; Index = (Sample 37 °C – No peptide 37 °C)/(Sample 26 °C – No peptide 26 °C); flow cytometry
Protocol: (§1) Binding of PM9 to both HLA-E*01:01 and –E*01:03 alleles was assessed using an HLA-E/peptide cell-surface stabilization assays. Thus, murine RMA-S cells deficient in transporter associated with antigen processing (TAP) were stably transfected with one of the two HLA-E alleles together with human β2-microglobuline. Then, stabilization of HLA-E/PM9 and HLA-E/VL9 complexes was compared in peptide-titration analyses using peptide concentrations ranging from 0.01 μg/ml to 100 μg/ml by growing transfected RMA-S cells overnight at 26 °C, pulsing them with peptide for 1 h and transferring them to 37 °C for 3 additional hours. Weak half-maximal effective concentrations (EC50) of over 100 μM were indicated for the interaction of PM9 with the two HLA-E*01:01 and E*01:03 molecules (Fig. 1A).

HLA-E*01:03 [2] = biological target: T2, HLA-E*01:03 (Homo sapiens, UniProt P13747); experiment: HLA-E/peptide cell-surface stabilization (binding) assay, RMA-S cells transfected with HLA-E*01:03; format: cell-based; parameters: RMA-S cells expressing HLA-E*01:01 and E*01:03 were generated by transfecting the genes into the RMA-S cell line; expressed in transfected cells; host or cells: murine TAP-deficient RMA-S cells; conditions: for Cell-Surface Stabilization Index E*01:03 ± SD: RMA-S cells with HLA-E*01:03 and human β2-microglobulin, overnight 26 °C, peptide 1 h 26 °C, 3 h 37 °C, peptide 100 μg/ml, Index = (Sample 37 °C – No peptide 37 °C)/(Sample 26 °C – No peptide 26 °C), mean ± SD n=3
Protocol: as §1

HLA-E*01:03 [3] = biological target: T2, HLA-E*01:03; conditions: summary of both assays
CD8+ HC092 STCL cells = format: cell-based, human; conditions: PM9-pulsed LCL721.221 HLA-B*18:01 transfectant; volunteer 410
Protocol: Cryopreserved PBMCs were thawed and cultures set up at 1–3 × 10^6 cells/ml in culture medium containing 1.5 μg/ml 15-mer ‘parental’ peptide and 25 ng/ml IL-7 (R & D Systems). Cultures were supplemented with 100 IU/ml IL-2 (R&D Systems) on day 3, and IL-2 plus fresh culture medium on day 7. On day 10, the cells were washed three times with culture medium, re-suspended in 1 ml of medium and placed at 37 °C, 5% CO2 for 48 h to rest prior to the ICS assay.
LCL 721.221 cell lines expressing a single HLA allele were prepulsed with corresponding peptides, added to the STCLs in a 96-well plate at 37 °C for 2 h. […]
The first-generation candidate T-cell vaccine against HIV-1 employing conserved regions of the HIV-1 proteome was tested in HIV-1-negative adults in trial HIV−CORE 002 and induced robust HIV-1-specific T-cell responses. These responses were detected by pools of 15-mer peptides overlapping by 11 amino acids across the full length of the HIV-1-derived vaccine immunogen. […] In particular, HLA restriction was determined by expanding volunteer’s PBMC with stimulatory ‘parental’ peptide […] […]

Mamu-E*02:04 = experiment: Single-chain peptide-β2-microglobulin-MHC-E trimer stabilization assay, HEK 293T cells, Mamu-E*02:04; format: cell-based, rhesus macaque (Macaca mulatta); conditions: transiently transfected HEK 293T cells; mAb 4D12
Text: (§2) The chimeric genes coding for the single-chain peptide-β2-microblobuline-MHC-E trimers were constructed as described previously. Briefly, the DNA fragment coding the tested peptide was inserted downstream of the fragment coding for the signal sequence of HLA-E*01:01 followed by coding sequences for a flexible linker [G4S]4, β2-microglobulin and the desired heavy chain of MHC-E. […] to accommodate for the flexible linker. The assembled plasmids were then transfected into HEK 293 T cells maintained between 10% and 90% confluency at 37 °C, 5% CO2 in DMEM (Life Technologies) supplemented with 10% FBS (SeraLabs), and 50 units/ml Penicillin/50 μg/ml Streptomycin (Life Technologies). Transfections were carried out in 6-well plates using GeneJuice (Millipore) as per the manufacturer’s instructions.
(§3) To further confirm PM9-interaction with the MHC-E molecules, we employed an assay based on cell-surface stabilization of single-chain peptide-β2-microblobuline-MHC-E trimers. Briefly, a DNA fragment coding for the tested peptide, here PM9, was inserted downstream of an HLA-E leader peptide and was followed by flexible [G4S]4 linker, β2-microblobuline and Y84 A point-mutated MHC-E heavy chain, which accommodated the flexible linker (Fig. 1B left). […]

[4] = tested on: CD8+ T cells of HIV-1-infected patients; experiment: Search for PM9-specific HLA-E-restricted CD8+ T-cell responses in natural HIV-1 infection; format: cell-based, human; conditions: PBMC of 32 treatment-naïve patients chronically infected with HIV-1; barely detectable response
Text: Cryopreserved PBMCs from 32 treatment-naïve Japanese individuals chronically infected with HIV-1 subtype B were recruited from the National Center for Global Health and Medicine. All volunteers gave written informed consent before participation. The study was approved by the ethics committees of Kumamoto University and the National Center for Global Health and Medicine. Informed consent was obtained from all individuals according to the Declaration of Helsinki. Plasma and PBMCs were separated from whole blood. HLA types of the individuals were determined by standard sequence-based genotyping.
So far, we were unable to confirm existence of vaccine- or natural HIV-1 infection-elicited CD8^+ T lymphocytes recognizing HIV-1-derived peptides through their TCR and this is not for lack of trying. […] Since humans infected with M. tuberculosis have readily detectable CD8^+ T cells specific for HLA-E-presented M. tuberculosis peptides, perhaps search for such HLA-E-restricted HIV-1-specific CD8 T cells in dually HIV-1- and M. tuberculosis co-infected individuals might yield some interesting results.

HLA-E*01:03 [5] = biological target: T2, HLA-E*01:03; experiment: Single-chain peptide-β2-microglobulin-MHC-E trimer stabilization assay, HEK 293T cells, HLA-E*01:03; format: cell-based; parameters: expressed in transfected cells; conditions: transiently transfected HEK 293T cells; for HLA-E*01:03 single-chain trimer surface stabilization: mAb 3D12, compared with VL9 and irrelevant peptide
Text: as §2
To further confirm PM9-interaction with the MHC-E molecules, we employed an assay based on cell-surface stabilization of single-chain peptide-β2-microblobuline-MHC-E trimers. Briefly, a DNA fragment coding for the tested peptide, here PM9, was inserted downstream of an HLA-E leader peptide and was followed by flexible [G4S]4 linker, β2-microblobuline and Y84 A point-mutated MHC-E heavy chain, which accommodated the flexible linker (Fig. 1B left). […] From these experiments, we concluded that the PM9 peptide bound to HLA-E molecules, and stabilized and increased the HLA-E expression on the cell surface.
Fig. 2 Identification of HLA-E-binding peptides in a single-chain trimer stabilization assay. A single chain peptide-β2-microglobuline-MHC-E heavy chain trimer stabilization assay was employed to determine the candidate 9-mer peptide binding to HLA-E*01:03 (brown line) and compared to that induced by VL9 (yellow area) and irrelevant (pink area) peptide. Expression of trimer on transiently transfected into HEK 293T cells was assessed using a […] 3D12 mAb in flow cytometry. Please see gating strategy in Fig. S3.

HLA-E*01:01 [6] = biological target: T1, HLA-E*01:01; experiment: Single-chain peptide-β2-microglobulin-MHC-E trimer stabilization assay, HEK 293T cells, HLA-E*01:01; format: cell-based; parameters: expressed in transfected cells; conditions: transiently transfected HEK 293T cells; mAb 3D12
Text: as §2, §3

Row | Sequence | Cell-Surface Stabilization Index E*01:01 (HLA-E*01:01 [1]) | Cell-Surface Stabilization Index E*01:03 ± SD (HLA-E*01:03 [2]) | also measured
1 | GHQAAMQMLKDTINE | 0.27 | 0.455 ± 0.033 | –
2 | GHQAAMQMLKETINE [C032, tHIVconsvX 15-mer peptide […]] | 0.16 | 0.480 ± 0.057 | –
3 | INEEAAEWDRLHPVH [C038, tHIVconsvX 15-mer peptide […]] | 0.20 | 0.389 ± 0.039 | –
4 | INEEAAEWDRVHPVH [C037, tHIVconsvX 15-mer peptide […]] | 0.30 | 0.419 ± 0.031 | –
5 | IVRMYSPTSILDIKQ | 0.03 | 0.518 ± 0.033 | –
6 | NEEAAEWDR [NR9] | – | – | HLA-E binder classification across the SCT assay and the LCL721.221-HLA-E*01:03 assay (MFI over 4000) (HLA-E*01:03 [3]): positive stabilization signal in at least one of the two employed assays
7 | PEIVIYQYM [PM9] | – | – | HLA-E binder classification across the SCT assay and the LCL721.221-HLA-E*01:03 assay (MFI over 4000) (HLA-E*01:03 [3]): both the SCT assay and over 4000 MFI in the LCL721.221-HLA-E*01:03 assay; IFN-γ production by CD8+ HC092 STCL cells (CD8+ HC092 STCL cells): 28.3%; Mamu-E*02:04 single-chain trimer surface expression (MFI) relative to non-binding peptide (Mamu-E*02:04): increased the mean fluorescent intensity (MFI) relative to a non-binding peptide; PM9-specific HLA-E-restricted CD8+ T-cell responders [4]: one possible responder out of 32 patients; HLA-E*01:03 single-chain trimer MFI relative to VL9 MFI (HLA-E*01:03 [5]; highest increase of the three MHC-E molecules): approximately half of the VL9 MFI; HLA-E*01:03 single-chain trimer surface stabilization (HLA-E*01:03 [5]): increased the mean fluorescent intensity (MFI) relative to a non-binding peptide; Cell-Surface Stabilization Index E*01:03/PM9 (HLA-E*01:03 [2]; PM9 positive control of the experimental day, RMA-S cells with HLA-E*01:03): 0.658 and 0.733 and 0.617 and 0.620; HLA-E*01:01 single-chain trimer surface expression (MFI) relative to non-binding peptide (HLA-E*01:01 [6]): increased the mean fluorescent intensity (MFI) relative to a non-binding peptide
8 | PQDLNMMLNIVGGHQ [C026, tHIVconsvX 15-mer peptide […]] | 0.25 | 0.429 ± 0.037 | –
9 | PQDLNTMLNTVGGHQ [C025, tHIVconsvX 15-mer peptide […]] | 0.32 | 0.431 ± 0.038 | –
10 | QMAVFIHNF [QF9] | – | – | HLA-E binder classification across the SCT assay and the LCL721.221-HLA-E*01:03 assay (MFI over 4000) (HLA-E*01:03 [3]): positive stabilization signal in at least one of the two employed assays
11 | QMAVFIHNFKRKGGI [C352, tHIVconsvX 15-mer peptide […]] | 0.26 | 0.641 ± 0.051 | –
12 | QMAVLIHNFKRRGGI [C353, tHIVconsvX 15-mer peptide […]] | 0.17 | 0.632 ± 0.065 | –
13 | SALSEGATPQDLNMM [C022, tHIVconsvX 15-mer peptide […]] | 0.14 | 0.382 ± 0.027 | –
14 | TEEKIKALTEICKEM [C182, tHIVconsvX 15-mer peptide […]] | 0.33 | 0.463 ± 0.085 | –
15 | TVCVIWCIH [TH9, reference compound] | – | – | Mamu-E*02:04 single-chain trimer surface expression (MFI) relative to non-binding peptide (Mamu-E*02:04): non-binding; HLA-E*01:03 single-chain trimer surface stabilization (HLA-E*01:03 [5]): non-binding; HLA-E*01:01 single-chain trimer surface expression (MFI) relative to non-binding peptide (HLA-E*01:01 [6]): non-binding
16 | VMAPRTLVL [VL9, reference compound] | – | – | Cell-Surface Stabilization Index E*01:03/VL9 (HLA-E*01:03 [2]; VL9 (VMAPRTLVL) positive control of the experimental day, RMA-S cells with HLA-E*01:03): 2.572 and 2.369 and 2.600 and 2.281
17 | VYYRDSRDPIWKGPA [C376, tHIVconsvX 15-mer peptide […]] | 0.22 | 0.366 ± 0.044 | –
18 | VYYRDSRDPLWKGPA [C377, tHIVconsvX 15-mer peptide […]] | 0.17 | 0.353 ± 0.039 | –
19 | YFSVPLDESFRKYTA [C226, tHIVconsvX 15-mer peptide […]] | −0.15 | 0.669 ± 0.010 | –
20 | YFSVPLDKDFRKYTA [C227, tHIVconsvX 15-mer peptide […]] | 0.21 | 0.618 ± 0.042 | –
